Species: Rattus norvegicus
Test: DrugMatrix - Regimen: Daily Repeat
Type: toxicity, organism-based, Sprague-Dawley
Set-up: regimen Daily Repeat, gender Male, age 6-8 weeks
Conditions: in vivo, po, route oral GAVAGE, vehicle 100 % SALINE; for ABSOLUTE BASOPHIL / ABSOLUTE EOSINOPHIL / ABSOLUTE LYMPHOCYTE / ABSOLUTE MONOCYTE / ABSOLUTE SEGMENTED NEUTROPHIL / BASOPHIL / EOSINOPHIL / ERYTHROCYTE COUNT / HEMATOCRIT / HEMOGLOBIN / LEUKOCYTE COUNT / LYMPHOCYTE / MEAN CORPUSCULAR HEMOGLOBIN / MEAN CORPUSCULAR HEMOGLOBIN CONCENTRATION / MEAN CORPUSCULAR VOLUME / MONOCYTE / NEUTROPHIL / NUCLEATED RED BLOOD CELLS / PLATELET COUNT: tissue Blood; for ALANINE AMINOTRANSFERASE / ALBUMIN / ALKALINE PHOSPHATASE / ASPARTATE AMINOTRANSFERASE / BLOOD UREA NITROGEN / CARBON DIOXIDE / CHLORIDE / CHOLESTEROL / CREATINE PHOSPHOKINASE / CREATININE / GLUCOSE / LACTATE DEHYDROGENASE / LIPASE / PHOSPHORUS / POTASSIUM / SODIUM / TOTAL BILIRUBIN / TOTAL PROTEIN / URIC ACID: tissue Plasma
[1] = 0 mg/kg, 72 h, dose level Control, time 3 day
[2] = 0 mg/kg, […], dose level Control, time 7 day
[3] = 3000 mg/kg, 72 h, dose level Low, time 3 day

CCO [ALCOHOL]
ABSOLUTE BASOPHIL [1]: 0 CELLS/uL
ABSOLUTE EOSINOPHIL [1]: 66 CELLS/uL
ABSOLUTE LYMPHOCYTE [1]: 11922.83 CELLS/uL
ABSOLUTE MONOCYTE [1]: 401.5 CELLS/uL
ABSOLUTE SEGMENTED NEUTROPHIL [1]: 1526.33 CELLS/uL
BASOPHIL [1]: 0%
EOSINOPHIL [1]: 0.5%
ERYTHROCYTE COUNT [1]: 5.62 x10E6/uL
HEMATOCRIT [1]: 37.17%
HEMOGLOBIN [1]: 13.53 G/DL
LEUKOCYTE COUNT [1]: 13.92 x10E3/uL
LYMPHOCYTE [1]: 86.17%
MEAN CORPUSCULAR HEMOGLOBIN [1]: 24.07 pg
MEAN CORPUSCULAR HEMOGLOBIN CONCENTRATION [1]: 36.42 G/DL
MEAN CORPUSCULAR VOLUME [1]: 66.1 fL
MONOCYTE [1]: 3%
NEUTROPHIL [1]: 10.33%
NUCLEATED RED BLOOD CELLS [1]: 0 /100WBC
PLATELET COUNT [1]: 1107 x10E3/uL
ALANINE AMINOTRANSFERASE [1]: 45.33 u/L
ALBUMIN [1]: 4.3 G/DL
ALKALINE PHOSPHATASE [1]: 321.33 u/L
ASPARTATE AMINOTRANSFERASE [1]: 77.33 u/L
BLOOD UREA NITROGEN [1]: 14.33 mg/dL
CARBON DIOXIDE [1]: 32.33 mmol/L
CHLORIDE [1]: 99.67 MEQ/L
CHOLESTEROL [1]: 82.33 mg/dL
CREATINE PHOSPHOKINASE [1]: 205.5 u/L
CREATININE [1]: 0.19 mg/dL
GLUCOSE [1]: 150.83 mg/dL
LACTATE DEHYDROGENASE [1]: 88.17 u/L
LIPASE [1]: 10.83 u/L
PHOSPHORUS [1]: 10.9 mg/dL
POTASSIUM [1]: 5.83 MEQ/L
SODIUM [1]: 145.15 MEQ/L
TOTAL BILIRUBIN [1]: 0.12 mg/dL
TOTAL PROTEIN [1]: 6.22 G/DL
URIC ACID [1]: 1 mg/dL
ABSOLUTE BASOPHIL [2]: 0 CELLS/uL
ABSOLUTE EOSINOPHIL [2]: 22 CELLS/uL
ABSOLUTE LYMPHOCYTE [2]: 11105.17 CELLS/uL
ABSOLUTE MONOCYTE [2]: 258.17 CELLS/uL
ABSOLUTE SEGMENTED NEUTROPHIL [2]: 881.33 CELLS/uL
BASOPHIL [2]: 0%
EOSINOPHIL [2]: 0.17%
ERYTHROCYTE COUNT [2]: 5.29 x10E6/uL
HEMATOCRIT [2]: 34.03%
HEMOGLOBIN [2]: 13.67 G/DL
LEUKOCYTE COUNT [2]: 12.27 x10E3/uL
LYMPHOCYTE [2]: 90.83%
MEAN CORPUSCULAR HEMOGLOBIN [2]: 25.9 pg
MEAN CORPUSCULAR HEMOGLOBIN CONCENTRATION [2]: 40.18 G/DL
MEAN CORPUSCULAR VOLUME [2]: 64.42 fL
MONOCYTE [2]: 2.17%
NEUTROPHIL [2]: 6.83%
NUCLEATED RED BLOOD CELLS [2]: 0 /100WBC
PLATELET COUNT [2]: 1159.83 x10E3/uL
ALANINE AMINOTRANSFERASE [2]: 45.83 u/L
ALBUMIN [2]: 4.1 G/DL
ALKALINE PHOSPHATASE [2]: 240 u/L
ASPARTATE AMINOTRANSFERASE [2]: 88.67 u/L
BLOOD UREA NITROGEN [2]: 13.67 mg/dL
CARBON DIOXIDE [2]: 31.83 mmol/L
CHLORIDE [2]: 96.83 MEQ/L
CHOLESTEROL [2]: 71.17 mg/dL
CREATINE PHOSPHOKINASE [2]: 202.5 u/L
CREATININE [2]: 0.22 mg/dL
GLUCOSE [2]: 132.67 mg/dL
LACTATE DEHYDROGENASE [2]: 107.17 u/L
LIPASE [2]: 10.5 u/L
PHOSPHORUS [2]: 10.47 mg/dL
POTASSIUM [2]: 6.23 MEQ/L
SODIUM [2]: 140.73 MEQ/L
TOTAL BILIRUBIN [2]: 0.12 mg/dL
TOTAL PROTEIN [2]: 6.18 G/DL
URIC ACID [2]: 0.87 mg/dL
ABSOLUTE BASOPHIL [3]: 0 CELLS/uL
ABSOLUTE EOSINOPHIL [3]: 0 CELLS/uL
ABSOLUTE LYMPHOCYTE [3]: 9478 CELLS/uL
ABSOLUTE MONOCYTE [3]: 154.17 CELLS/uL
ABSOLUTE SEGMENTED NEUTROPHIL [3]: 701.17 CELLS/uL
BASOPHIL [3]: 0%
EOSINOPHIL [3]: 0%
ERYTHROCYTE COUNT [3]: 5.61 x10E6/uL
HEMATOCRIT [3]: 37.43%
HEMOGLOBIN [3]: 13.38 G/DL
LEUKOCYTE COUNT [3]: 10.33 x10E3/uL
LYMPHOCYTE [3]: 91.5%
MEAN CORPUSCULAR HEMOGLOBIN [3]: 23.87 pg
MEAN CORPUSCULAR HEMOGLOBIN CONCENTRATION [3]: 35.78 G/DL
MEAN CORPUSCULAR VOLUME [3]: 66.65 fL
MONOCYTE [3]: 1.5%
NEUTROPHIL [3]: 7%
NUCLEATED RED BLOOD CELLS [3]: 0 /100WBC
PLATELET COUNT [3]: 1014.67 x10E3/uL
ALANINE AMINOTRANSFERASE [3]: 55.33 u/L
ALBUMIN [3]: 4.22 G/DL
ALKALINE PHOSPHATASE [3]: 351.5 u/L
ASPARTATE AMINOTRANSFERASE [3]: 80.33 u/L
BLOOD UREA NITROGEN [3]: 10.17 mg/dL
CARBON DIOXIDE [3]: 30.17 mmol/L
CHLORIDE [3]: 99.8 MEQ/L
CHOLESTEROL [3]: 73.17 mg/dL
CREATINE PHOSPHOKINASE [3]: 216.33 u/L
CREATININE [3]: 0.24 mg/dL
GLUCOSE [3]: 152.67 mg/dL
LACTATE DEHYDROGENASE [3]: 102.83 u/L
LIPASE [3]: 8.17 u/L
PHOSPHORUS [3]: 10.45 mg/dL
POTASSIUM [3]: 5.55 MEQ/L
SODIUM [3]: 144.46 MEQ/L
TOTAL BILIRUBIN [3]: 0.1 mg/dL
TOTAL PROTEIN [3]: 6.13 G/DL
URIC ACID [3]: 0.87 mg/dL
